According to patent US6358885B1, “Substituted phenylheterocyclic herbicides” (Mississippi State University, priority 1992, dated 2002):

Tests used:
Test in all cases: Test B preemergence/postemergence greenhouse plant response rating 0 to 10
Conditions in all cases: 0 to 10 scale
[1] = tested on: lambsquarters; format: in vivo, Chenopodium album
Description: (§1) Seeds of barley (Hordeum vulgare), barnyardgrass (Echinochloa crus-galli), bedstraw (Galium aparine), blackgrass (Alopecurus myosuroides), […] (Bromus secalinus), chickweed (Stellaria media), cocklebur (Xanthium pensylvanicum), corn (Zea mays), cotton (Gossypium hirsutum), crabgrass (Digitaria spp.), giant foxtail (Setaria faberii), lambsquarters (Chenopodium album), morningglory (Ipomoea hederacea), rape (Brassica napus), rice (Oryza sativa), sorghum (Sorghum bicolor), soybean (Glycine max), sugar beet (Beta vulgaris), velvetleaf (Abutilon theophrasti), wheat (Triticum aestivum), wild buckwheat (Polygonum convolvulus), and wild oat (Avena fatua) and purple nutsedge. (Cyperus rotundus) tubers were planted and treated preemergence with test chemicals dissolved in a non-phytotoxic solvent. At the same time, these crop and weed species were also treated with postemergence applications of test chemicals. Plants ranged in height from two to eighteen cm (one to four leaf stage) for postemergence treatments. Treated plants and controls were maintained in a greenhouse for twelve to sixteen days, after which all species were compared to controls and visually evaluated. […] A dash (-) response means no test result.

[2] = tested on: barley; format: in vivo, Hordeum vulgare
Description: as §1

[3] = tested on: rape; format: in vivo, Brassica napus
Description: as §1

[4] = tested on: chickweed; format: in vivo, Stellaria media
Description: as §1

[5] = tested on: wild buckwheat; format: in vivo, Polygonum convolvulus
Description: as §1

[6] = tested on: wheat; format: in vivo, Triticum aestivum
Description: as §1

[7] = tested on: blackgrass; format: in vivo, Alopecurus myosuroides
Description: as §1

[8] = tested on: cheatgrass; format: in vivo, Bromus secalinus
Description: as §1

[9] = tested on: sugar beet; format: in vivo, Beta vulgaris
Description: as §1

[10] = tested on: bedstraw; format: in vivo, Galium aparine
Description: as §1

[11] = tested on: wild oat; format: in vivo, Avena fatua
Description: as §1

Fc1cc(Cl)c(-c2ccccc2)cc1-c1nn2c(c1Cl)CCCC2 [Compound 46]
Plant response rating, Lambsquarter ([1]; POSTEMERGENCE, Rate 50 g/ha): 9
Plant response rating, Lambsquarter ([1]; PREEMERGENCE, Rate 50 g/ha): 0
Plant response rating, Lambsquarter ([1]; Rate 200 g/ha, POSTEMERGENCE): 10
Plant response rating, Lambsquarter ([1]; Rate 200 g/ha, PREEMERGENCE): 9
Plant response rating, Barley ([2]; POSTEMERGENCE, Rate 50 g/ha): 2
Plant response rating, Barley ([2]; POSTEMERGENCE, Rate 200 g/ha): 3
Plant response rating, Barley ([2]; PREEMERGENCE, Rate 50 g/ha): 0
Plant response rating, Barley ([2]; Rate 200 g/ha, PREEMERGENCE): 0
Plant response rating, Rape ([3]; POSTEMERGENCE, Rate 50 g/ha): 4
Plant response rating, Rape ([3]; PREEMERGENCE, Rate 50 g/ha): 0
Plant response rating, Rape ([3]; Rate 200 g/ha, POSTEMERGENCE): 4
Plant response rating, Rape ([3]; Rate 200 g/ha, PREEMERGENCE): 0
Plant response rating, Chickweed ([4]; POSTEMERGENCE, Rate 50 g/ha): 3
Plant response rating, Chickweed ([4]; POSTEMERGENCE, Rate 200 g/ha): 3
Plant response rating, Chickweed ([4]; PREEMERGENCE, Rate 50 g/ha): 0
Plant response rating, Chickweed ([4]; Rate 200 g/ha, PREEMERGENCE): 2
Plant response rating, Wild buckwheat ([5]; POSTEMERGENCE, Rate 50 g/ha): 6
Plant response rating, Wild buckwheat ([5]; PREEMERGENCE, Rate 50 g/ha): 0
Plant response rating, Wild buckwheat ([5]; Rate 200 g/ha, POSTEMERGENCE): 10
Plant response rating, Wild buckwheat ([5]; Rate 200 g/ha, PREEMERGENCE): 4
Plant response rating, Wheat ([6]; POSTEMERGENCE, Rate 50 g/ha): 2
Plant response rating, Wheat ([6]; PREEMERGENCE, Rate 50 g/ha): 0
Plant response rating, Wheat ([6]; Rate 200 g/ha, POSTEMERGENCE): 3
Plant response rating, Wheat ([6]; Rate 200 g/ha, PREEMERGENCE): 0
Plant response rating, Blackgrass ([7]; POSTEMERGENCE, Rate 50 g/ha): 2
Plant response rating, Blackgrass ([7]; POSTEMERGENCE, Rate 200 g/ha): 3
Plant response rating, Blackgrass ([7]; PREEMERGENCE, Rate 50 g/ha): 0
Plant response rating, Blackgrass ([7]; Rate 200 g/ha, PREEMERGENCE): 0
Plant response rating, Cheatgrass ([8]; POSTEMERGENCE, Rate 50 g/ha): 3
Plant response rating, Cheatgrass ([8]; POSTEMERGENCE, Rate 200 g/ha): 4
Plant response rating, Cheatgrass ([8]; PREEMERGENCE, Rate 50 g/ha): 0
Plant response rating, Cheatgrass ([8]; Rate 200 g/ha, PREEMERGENCE): 0
Plant response rating, Sugar beet ([9]; POSTEMERGENCE, Rate 50 g/ha): 10
Plant response rating, Sugar beet ([9]; PREEMERGENCE, Rate 50 g/ha): 0
Plant response rating, Sugar beet ([9]; Rate 200 g/ha, POSTEMERGENCE): 9
Plant response rating, Sugar beet ([9]; Rate 200 g/ha, PREEMERGENCE): 7
Plant response rating, Bedstraw ([10]; POSTEMERGENCE, Rate 50 g/ha): 6
Plant response rating, Bedstraw ([10]; POSTEMERGENCE, Rate 200 g/ha): 8
Plant response rating, Bedstraw ([10]; PREEMERGENCE, Rate 50 g/ha): 0
Plant response rating, Bedstraw ([10]; Rate 200 g/ha, PREEMERGENCE): 2
Plant response rating, Wild oat ([11]; POSTEMERGENCE, Rate 50 g/ha): 2
Plant response rating, Wild oat ([11]; PREEMERGENCE, Rate 50 g/ha): 0
Plant response rating, Wild oat ([11]; Rate 200 g/ha, POSTEMERGENCE): 2
